Reference: patent publication US20100099561A1, “HETEROBICYCLIC ALKYLTHIO-BRIDGED ISOXAZOLINES” (E.I. DU PONT DE NEMOURS AND COMPANY, priority 2008, published 2010)

Experiments:
Format in all cases: in vivo
[1] = system: pigweed (Amaranthus retroflexus); assay: Test B preemergence, pigweed; conditions: scale 0 to 100
Text: (§1) Seeds of plant species selected from blackgrass (Alopecurus myosuroides), downy bromegrass (Bromus tectorum), green foxtail (Setaria viridis), Italian ryegrass (Lolium multiflorum), wheat (Triticum aestivum), wild oat (Avena fatua), catchweed bedstraw (Galium aparine), bermudagrass (Cynodon dactylon), Surinam grass (Brachiaria decumbens), cocklebur (Xanthium strumarium), corn (Zea mays), large crabgrass (Digitaria sanguinalis), woolly cupgrass (Eriochloa villosa), giant foxtail (Setaria faberii), goosegrass (Eleusine indica), johnsongrass (Sorghum halepense), kochia (Kochia scoparia), lambsquarters (Chenopodium album), morningglory (Ipomoea coccinea), nightshade (eastern black nightshade, Solanum ptycanthum), yellow nutsedge (Cyperus esculentus), pigweed (Amaranthus retroflexus), ragweed (common ragweed, Ambrosia elatior), soybean (Glycine max), sunflower (common oilseed sunflower, Helianthus annuus), Russian thistle (Salsola kali), and velvetleaf (Abutilon theophrasti) were planted into a blend of loam soil and sand and treated preemergence with test compounds formulated in a non-phytotoxic solvent mixture which included a surfactant. Treated plants and controls were maintained in a greenhouse for 13 to 15 days, after which time all species were compared to controls and visually evaluated. Plant response ratings, summarized in Table B, are based on a scale of 0 to 100 where 0 is no effect and 100 is complete control. A dash (-) response means no test result.

[2] = system: downy bromegrass (Bromus tectorum); assay: Test B preemergence, downy bromegrass; conditions: scale 0 to 100
Text: as §1

kochia (Kochia scoparia) = assay: Test B preemergence, kochia; conditions: scale 0 to 100
Text: as §1

[3] = system: velvetleaf (Abutilon theophrasti); assay: Test A preemergence, velvetleaf; conditions: 0 to 100 scale (0 no effect, 100 complete control)
Procedure, shortened: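 Greenhouse pre/postemergence test, loam–sand soil. Postemergence plants one- to two-leaf, 2–10 cm. Visual injury rating ~10 d after treatment, 0–100 vs untreated.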

[4] = system: johnsongrass (Sorghum halepense); assay: Test B preemergence, johnsongrass; conditions: scale 0 to 100
Text: as §1

[5] = system: Surinam grass (Brachiaria decumbens); assay: Test B preemergence, Surinam grass; conditions: Preemergence, scale 0 to 100
Text: as §1

[6] = system: cocklebur (Xanthium strumarium); assay: Test B preemergence, cocklebur; conditions: scale 0 to 100
Text: as §1

[7] = system: Russian thistle (Salsola kali); assay: Test B preemergence, Russian thistle; conditions: scale 0 to 100
Text: as §1

Structure (SMILES) | Plant response rating, Pigweed ([1]; 31 g ai/ha) | Plant response rating, Pigweed ([1]; 62 g ai/ha) | Plant response rating, Pigweed ([1]; 125 g ai/ha) | Plant response rating, Bromegrass, Downy ([2]; 16 g ai/ha) | Plant response rating, Bromegrass, Downy ([2]; 31 g ai/ha) | Plant response rating, Bromegrass, Downy ([2]; 62 g ai/ha) | Plant response rating, Bromegrass, Downy ([2]; 125 g ai/ha) | Plant response rating, Kochia (kochia (Kochia scoparia); 16 g ai/ha) | Plant response rating, Kochia (kochia (Kochia scoparia); 62 g ai/ha) | Plant response rating, Velvetleaf ([3]; 125 g ai/ha) | Plant response rating, Velvetleaf ([3]; 500 g ai/ha) | Plant response rating, Johnsongrass ([4]; 16 g ai/ha) | Plant response rating, Johnsongrass ([4]; 31 g ai/ha) | Plant response rating, Johnsongrass ([4]; 62 g ai/ha) | Plant response rating, Surinam Grass ([5]; 16 g ai/ha) | Plant response rating, Surinam Grass ([5]; 31 g ai/ha) | Plant response rating, Surinam Grass ([5]; 62 g ai/ha) | Plant response rating, Cocklebur ([6]; 16 g ai/ha) | Plant response rating, Cocklebur ([6]; 31 g ai/ha) | Plant response rating, Cocklebur ([6]; 62 g ai/ha) | further results
CC1(C)CC(S(=O)(=O)Cc2c(C(F)(F)C(F)(F)F)nc3n(c2=O)CCCC3)=NO1 [Compound 21] | 0 | 0 | 98 | 0 | 0 | 0 | 60 | 0 | 60 | 0 | 60 | 0 | 30 | 60 | 50 | 50 | 50 | 0 | 0 | 0 | Plant response rating, Pigweed ([1]; 16 g ai/ha): 0; Plant response rating, Kochia (kochia (Kochia scoparia); 125 g ai/ha): 80; Plant response rating, Johnsongrass ([4]; 125 g ai/ha): 98; Plant response rating, Surinam Grass ([5]; 125 g ai/ha): 100; Plant response rating, Cocklebur ([6]; 125 g ai/ha): 0; Plant response rating, Russian Thistle ([7]; 16 g ai/ha): 0; Plant response rating, Russian Thistle ([7]; 31 g ai/ha): 60; Plant response rating, Russian Thistle ([7]; 62 g ai/ha): 65; Plant response rating, Russian Thistle ([7]; 125 g ai/ha): 85
CC1(C)CC(S(=O)(=O)Cc2c(C(F)(F)Cl)nc3n(c2=O)CCC3)=NO1 [Compound 18] | 100 | 100 | 100 | 0 | 0 | 0 | 20 | 0 | 55 | 0 | 60 | 15 | 20 | 60 | 0 | 40 | 75 | 0 | 0 | 0 | Plant response rating, Pigweed ([1]; 16 g ai/ha): 0; Plant response rating, Kochia (kochia (Kochia scoparia); 31 g ai/ha): 0; Plant response rating, Kochia (kochia (Kochia scoparia); 125 g ai/ha): 100; Plant response rating, Johnsongrass ([4]; 125 g ai/ha): 85; Plant response rating, Surinam Grass ([5]; 125 g ai/ha): 85; Plant response rating, Cocklebur ([6]; 125 g ai/ha): 0
CC1(C)CC(S(=O)(=O)Cc2c(C(F)(F)C(F)(F)F)nc3n(c2=O)CCC3)=NO1 [Compound 22] | 0 | – | 100 | 0 | 0 | 0 | 60 | 0 | 0 | 30 | 90 | 0 | 10 | 65 | 0 | 0 | 90 | 0 | 0 | 0 | Plant response rating, Kochia (kochia (Kochia scoparia); 31 g ai/ha): 0; Plant response rating, Kochia (kochia (Kochia scoparia); 125 g ai/ha): 70; Plant response rating, Johnsongrass ([4]; 125 g ai/ha): 98; Plant response rating, Surinam Grass ([5]; 125 g ai/ha): 95; Plant response rating, Cocklebur ([6]; 125 g ai/ha): 0; Plant response rating, Russian Thistle ([7]; 31 g ai/ha): 0; Plant response rating, Russian Thistle ([7]; 62 g ai/ha): 30; Plant response rating, Russian Thistle ([7]; 125 g ai/ha): 60
CC1(C)CC(S(=O)(=O)Cc2c(C(F)(F)F)nc3n(c2=O)CCC3)=NO1 [Compound 11, 3-[[(4,5-dihydro-5,5-dimethyl-3-isoxazolyl)sulfonyl]methyl]-7,8-dihydro-2-(trifluoromethyl)pyrrolo[1,2-α]pyrimidin-4(6H)-one] | 0 | 100 | 100 | 0 | 0 | 0 | 65 | – | – | 10 | 60 | 0 | 60 | 65 | 0 | 0 | 0 | 0 | 0 | 0 | Plant response rating, Pigweed ([1]; 16 g ai/ha): 0; Plant response rating, Johnsongrass ([4]; 125 g ai/ha): 90; Plant response rating, Surinam Grass ([5]; 125 g ai/ha): 85; Plant response rating, Cocklebur ([6]; 125 g ai/ha): 0
CC1(C)CC(S(=O)(=O)Cc2c(C(F)(F)F)nc3n(c2=O)CCO3)=NO1 [Compound 2, 6-[[(4,5-dihydro-5,5-dimethyl-3-isoxazolyl)sulfonyl]methyl]-2,3-dihydro-7-(trifluoromethyl)-5H-oxazolo[3,2-α]pyrimidin-5-one] | 0 | 0 | – | 0 | 0 | 0 | – | 0 | 70 | 10 | 90 | 10 | 30 | 80 | 0 | 80 | 80 | 0 | 0 | 0 | Plant response rating, Pigweed ([1]; 8 g ai/ha): 0; Plant response rating, Pigweed ([1]; 16 g ai/ha): 0; Plant response rating, Bromegrass, Downy ([2]; 8 g ai/ha): 0; Plant response rating, Kochia (kochia (Kochia scoparia); 8 g ai/ha): 0; Plant response rating, Kochia (kochia (Kochia scoparia); 31 g ai/ha): 75; Plant response rating, Johnsongrass ([4]; 8 g ai/ha): 0; Plant response rating, Cocklebur ([6]; 8 g ai/ha): 0; Plant response rating, Russian Thistle ([7]; 8 g ai/ha): 0; Plant response rating, Russian Thistle ([7]; 16 g ai/ha): 0; Plant response rating, Russian Thistle ([7]; 31 g ai/ha): 0; Plant response rating, Russian Thistle ([7]; 62 g ai/ha): 0
CC1(C)CC(S(=O)(=O)Cc2c(C(F)(F)F)nc3ccsn3c2=O)=NO1 [Compound 16] | 0 | 0 | 100 | 0 | 0 | 0 | 30 | 0 | 0 | 50 | 60 | 0 | 45 | 85 | 0 | 55 | 95 | 0 | 0 | 0 | Plant response rating, Kochia (kochia (Kochia scoparia); 31 g ai/ha): 0; Plant response rating, Kochia (kochia (Kochia scoparia); 125 g ai/ha): 0; Plant response rating, Johnsongrass ([4]; 125 g ai/ha): 95; Plant response rating, Surinam Grass ([5]; 125 g ai/ha): 98; Plant response rating, Cocklebur ([6]; 125 g ai/ha): 0
